{
  "source": "patent US11318134B2",
  "about": "“Benzamide compounds” (priority 2018, dated 2022)",
  "key": {"[1]": {"target": "Bcl-2 (Homo sapiens (Human), UniProt P10415)", "sequence (P10415 whole entry)": "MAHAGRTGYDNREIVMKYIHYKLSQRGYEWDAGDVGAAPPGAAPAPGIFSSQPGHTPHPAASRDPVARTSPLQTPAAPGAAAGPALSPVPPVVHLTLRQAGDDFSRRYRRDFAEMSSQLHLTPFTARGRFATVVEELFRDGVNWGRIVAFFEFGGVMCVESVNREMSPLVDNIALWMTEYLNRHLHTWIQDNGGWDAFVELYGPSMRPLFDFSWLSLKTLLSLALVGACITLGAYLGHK", "experiment": "Bcl-2 protein family binding assay (Bcl2scan platform), Bcl-2", "details": "BIM peptide ligand, 11-point dilution, read-out: Bc1-2 Kd (nm)", "experimental": "(§1) E. coli were grown to log-phase and infected with T7 phage from a frozen stock (multiplicity of infection=0.4) and incubated with shaking at 32° C. until lysis (90-150 minutes). The lysates were centrifuged (5,000×g) and filtered (0.2 μm) to remove cell debris. […] The liganded beads were blocked with excess biotin and washed with blocking buffer (SeaBlock (Pierce), 1% BSA, 0.05% Tween 20, 1 mM DTT) to remove unbound ligand and to reduce non-specific phage binding. […] Test compounds were prepared as 100× stocks in 100% DMSO. Kds were determined using an 11-point 3-fold compound dilution series with one DMSO control point. […] The compounds were then diluted directly into the assays such that the final concentration of DMSO was 0.9%. All reactions performed in polypropylene 384-well plates. Each was a final volume of 0.02 ml. […] The BCL2 concentration in the eluates was measured by qPCR. Binding constants (Kds) were calculated with a standard dose-response curve using the Hill equation:\n(§2) [formula] The Hill Slope was set to −1. Curves were fitted using a non-linear least square fit with the Levenberg-Marquardt algorithm."}, "[2]": {"target": "Bcl-XL (Homo sapiens (Human), UniProt Q07817)", "sequence (Q07817 whole entry)": "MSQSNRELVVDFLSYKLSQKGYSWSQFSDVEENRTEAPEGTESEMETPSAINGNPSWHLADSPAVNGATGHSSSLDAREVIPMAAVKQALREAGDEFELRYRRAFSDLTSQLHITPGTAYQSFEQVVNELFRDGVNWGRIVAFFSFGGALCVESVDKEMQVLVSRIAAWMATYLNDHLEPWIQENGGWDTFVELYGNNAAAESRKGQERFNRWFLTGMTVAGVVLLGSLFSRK", "experiment": "Bcl-2 protein family binding assay (Bcl2scan platform), Bcl-XL", "details": "BIM peptide ligand, 11-point dilution, read-out: Bc1-XL Kd (nm)", "experimental": "as §1, §2"}, "[3]": {"test_system": "RS4;11 cells", "experiment": "RS4;11 cell proliferation assay (CellTiter-Glo)", "type": "cell-based", "details": "Homo sapiens, RS4-11, 48 h, read-out: RS4;11 (nM), CTG IC50", "experimental": "Cell proliferation was measured using the CellTiter-Glo® Luminescent Cell Viability Assay. The assay involved the addition of a single reagent (CellTiter-Glo® Reagent) directly to cells cultured in serum-supplemented medium.\nEach compound evaluated was prepared as a DMSO stock solution (10 mM). Compounds were tested in duplicate on each plate, with a 10-point serial dilution curve (1:3 dilution). Compound treatment (1.0 μL) was added from the compound dilution plate to the cell plate. The highest compound concentration was 10 μM (final), with a 0.1% final DMSO concentration. Plates were then incubated at 37° C., 5% CO2. After 48 h of compound treatment for RS4;11 or 72 h for NCI-H1963, cell plates were equilibrated at rt for approximately 30 mins. An equi-volume amount of CellTiter-Glo® Reagent (40 μL) was added to each well. […] Luminescence was recorded using a Envision plate reader according to CellTiter-Glo protocol. IC50 of each compound was calculated using GraphPad Prism by nonlinear regression analysis."}},
  "note": "pKd: −log10 of the molar value.",
  "data": [
    {"molecule": "CC(C)C12CC(C3=C(CN4CCN(c5ccc(C(=O)NS(=O)(=O)c6ccc(NCC7CCOCC7)c([N+](=O)[O-])c6)c(Oc6cnc7[nH]ccc7c6)c5)CC4)CCC(C)(C)C3)(C1)C2", "note": "[Example 39, 2-((1H-pyrrolo[2,3-b]pyridin-5-yl)oxy)-4-(4-((2-(3-isopropylbicyclo[0.1.1]pentan-1-yl)-4,4-dimethylcyclohex-1-en-1-yl)methyl)piperazin-1-yl)-N-((3-nitro-4-(((tetrahydro-2H-pyran-4-yl)methyl)amino)phenyl)sulfonyl)benzamide]", "values": [
      {"measurement": "pKd", "setting": "[1]", "result": "7.00 to 8.00"},
      {"measurement": "pKd", "setting": "[2]", "result": "< 7.00"},
      {"measurement": "IC50", "setting": "[3]", "result": "< 100", "unit": "nM"}
    ]},
    {"molecule": "CC1(C)CCC(CN2CCN(c3ccc(C(=O)NS(=O)(=O)c4ccc(NCC5CCOCC5)c([N+](=O)[O-])c4)c(Oc4cnc5[nH]ccc5c4)c3)CC2)=C(C23CC(C(F)(F)F)(C2)C3)C1", "note": "[Example 28, 2-((1H-pyrrolo[2,3-b]pyridin-5-yl)oxy)-4-(4-((4,4-dimethyl-2-(3-(trifluoromethyl)bicyclo[1.1.1]pentan-1-yl)cyclohex-1-en-1-yl)methyl)piperazin-1-yl)-N-((3-nitro-4-(((tetrahydro-2H-pyran-4-yl)methyl)amino)phenyl)sulfonyl)benzamide]", "values": [
      {"measurement": "pKd", "setting": "[1]", "result": "> 8.00"},
      {"measurement": "pKd", "setting": "[2]", "result": "< 7.00"},
      {"measurement": "IC50", "setting": "[3]", "result": "< 100", "unit": "nM"}
    ]},
    {"molecule": "CN1CCO[C@H](CNc2ccc(S(=O)(=O)NC(=O)c3ccc(N4CCN(CC5=C(C67CC(C)(C6)C7)CC(C)(C)CC5)CC4)cc3Oc3cnc4[nH]ccc4c3)cc2[N+](=O)[O-])C1", "note": "[Example 18, (R)-2-((1H-pyrrolo[2,3-b]pyridin-5-yl)oxy)-4-(4-((4,4-dimethyl-2-(3-methylbicyclo[1.1.1]pentan-1-yl)cyclohex-1-en-1-yl)methyl)piperazin-1-yl)-N-((4-(((4-methylmorpholin-2-yl)methyl)amino)-3-nitrophenyl)sulfonyl)benzamide]", "values": [
      {"measurement": "IC50", "setting": "[3]", "result": "< 100", "unit": "nM"}
    ]},
    {"molecule": "CC1(C)CCC(CN2CCN(c3ccc(C(=O)NS(=O)(=O)c4ccc(NCC5CCOCC5)c([N+](=O)[O-])c4)c(Oc4cnc5[nH]ccc5c4)c3)CC2)=C(C23CC(C)(C2)C3)C1", "note": "[Example 9, 2-(1H-pyrrolo[2,3-b]pyridin-5-yloxy)-4-(4-((4,4-dimethyl-2-(3-methylbicyclo[1.1.1]pentan-1-yl)cyclohex-1-enyl)methyl)piperazin-1-yl)-N-(3-nitro-4-((tetrahydro-2H-pyran-4-yl)methylamino)phenylsulfonyl)benzamide]", "values": [
      {"measurement": "pKd", "setting": "[1]", "result": "> 8.00"},
      {"measurement": "pKd", "setting": "[2]", "result": "< 7.00"},
      {"measurement": "IC50", "setting": "[3]", "result": "< 100", "unit": "nM"}
    ]},
    {"molecule": "CC1(C)CCC(CN2CCN(c3ccc(C(=O)NS(=O)(=O)c4ccc(NCC5CCOCC5)c([N+](=O)[O-])c4)c(Oc4cnc5[nH]ccc5c4)c3)CC2)=C(C23CC(C(F)F)(C2)C3)C1", "note": "[Example 33, 2-((1H-pyrrolo[2,3-b]pyridin-5-yl)oxy)-4-(4-((2-(3-(difluoromethyl)bicyclo[1.1.1]pentan-1-yl)-4,4-dimethylcyclohex-1-en-1-yl)methyl)piperazin-1-yl)-N-((3-nitro-4-(((tetrahydro-2H-pyran-4-yl)methyl)amino)phenyl)sulfonyl)benzamide]", "values": [
      {"measurement": "pKd", "setting": "[1]", "result": "> 8.00"},
      {"measurement": "pKd", "setting": "[2]", "result": "< 7.00"},
      {"measurement": "IC50", "setting": "[3]", "result": "< 100", "unit": "nM"}
    ]},
    {"molecule": "CC1(C)CCC(CN2CCN(c3ccc(C(=O)NS(=O)(=O)c4ccc(NCC5(F)CCOCC5)c([N+](=O)[O-])c4)c(Oc4cnc5[nH]ccc5c4)c3)CC2)=C(C23CC(C(F)(F)F)(C2)C3)C1", "note": "[Example 30, 2-((1H-pyrrolo[2,3-b]pyridin-5-yl)oxy)-4-(4-((4,4-dimethyl-2-(3-(trifluoromethyl)bicyclo[1.1.1]pentan-1-yl)cyclohex-1l-en-1-yl)methyl)piperazin-1-yl)-N-((4-(((4-fluorotetrahydro-2H-pyran-4-yl)methyl)amino)-3-nitrophenyl)sulfonyl)benzamide]", "values": [
      {"measurement": "pKd", "setting": "[1]", "result": "> 8.00"},
      {"measurement": "pKd", "setting": "[2]", "result": "< 7.00"},
      {"measurement": "IC50", "setting": "[3]", "result": "< 100", "unit": "nM"}
    ]},
    {"molecule": "CN1CCO[C@@H](CNc2ccc(S(=O)(=O)NC(=O)c3ccc(N4CCN(CC5=C(C67CC(C)(C6)C7)CC(C)(C)CC5)CC4)cc3Oc3cnc4[nH]ccc4c3)cc2[N+](=O)[O-])C1", "note": "[Example 19, (S)-2-((1H-pyrrolo[2,3-b]pyridin-5-yl)oxy)-4-(4-((4,4-dimethyl-2-(3-methylbicyclo[1.1.1]pentan-1-yl)cyclohex-1-en-1-yl)methyl)piperazin-1-yl)-N-((4-(((4-methylmorpholin-2-yl)methyl)amino)-3-nitrophenyl)sulfonyl)benzamide]", "values": [
      {"measurement": "IC50", "setting": "[3]", "result": "< 100", "unit": "nM"}
    ]},
    {"molecule": "CCC12CC(C3=C(CN4CCN(c5ccc(C(=O)NS(=O)(=O)c6ccc(NC[C@H]7CC[C@](C)(O)CC7)c([N+](=O)[O-])c6)c(Oc6cnc7[nH]ccc7c6)c5)CC4)CCC(C)(C)C3)(C1)C2", "note": "[Example 27, 2-((1H-pyrrolo[2,3-b]pyridin-5-yl)oxy)-4-(4-((2-(3-ethylbicyclo[1.1.1]pentan-1-yl)-4,4-dimethylcyclohex-1-en-1-yl)methyl)piperazin-1-yl)-N-((4-((((1r,4r)-4-hydroxy-4-methylcyclohexyl)methyl)amino)-3-nitrophenyl)sulfonyl)benzamide]", "values": [
      {"measurement": "pKd", "setting": "[1]", "result": "> 8.00"},
      {"measurement": "pKd", "setting": "[2]", "result": "< 7.00"},
      {"measurement": "IC50", "setting": "[3]", "result": "< 100", "unit": "nM"}
    ]},
    {"molecule": "CCC12CC(C3=C(CN4CCN(c5ccc(C(=O)NS(=O)(=O)c6ccc(NCC7(F)CCOCC7)c([N+](=O)[O-])c6)c(Oc6cnc7[nH]ccc7c6)c5)CC4)CCC(C)(C)C3)(C1)C2", "note": "[Example 25, 2-((1H-pyrrolo[2,3-b]pyridin-5-yl)oxy)-4-(4-((2-(3-ethylbicyclo[1.1.1]pentan-1-yl)-4,4-dimethylcyclohex-1-en-1-yl)methyl)piperazin-1-yl)-N-((4-(((4-fluorotetrahydro-2H-pyran-4-yl)methyl)amino)-3-nitrophenyl)sulfonyl)benzamide]", "values": [
      {"measurement": "pKd", "setting": "[1]", "result": "> 8.00"},
      {"measurement": "pKd", "setting": "[2]", "result": "< 7.00"},
      {"measurement": "IC50", "setting": "[3]", "result": "< 100", "unit": "nM"}
    ]},
    {"molecule": "CC1(C)CCC(CN2CCN(c3ccc(C(=O)NS(=O)(=O)c4ccc(OCC5(F)CCOCC5)c([N+](=O)[O-])c4)c(Oc4cnc5[nH]ccc5c4)c3)CC2)=C(C23CC(C(F)F)(C2)C3)C1", "note": "[Example 36, 2-((1H-pyrrolo[2,3-b]pyridin-5-yl)oxy)-4-(4-((2-(3-(difluoromethyl)bicyclo[1.1.1]pentan-1-yl)-4,4-dimethylcyclohex-1-en-1-yl)methyl)piperazin-1-yl)-N-((4-((4-fluorotetrahydro-2H-pyran-4-yl)methoxy)-3-nitrophenyl)sulfonyl)benzamide]", "values": [
      {"measurement": "pKd", "setting": "[1]", "result": "> 8.00"},
      {"measurement": "pKd", "setting": "[2]", "result": "7.00 to 8.00"},
      {"measurement": "IC50", "setting": "[3]", "result": "< 100", "unit": "nM"}
    ]},
    {"molecule": "CN1CCC(F)(CNc2ccc(S(=O)(=O)NC(=O)c3ccc(N4CCN(CC5=C(C67CC(C(F)F)(C6)C7)CC(C)(C)CC5)CC4)cc3Oc3cnc4[nH]ccc4c3)cc2[N+](=O)[O-])CC1", "note": "[Example 38, 2-((1H-pyrrolo[2,3-b]pyridin-5-yl)oxy)-4-(4-((2-(3-(difluoromethyl)bicyclo[1.1.1]pentan-1-yl)-4,4-dimethylcyclohex-1-en-1-yl)methyl)piperazin-1-yl)-N-((4-(((4-fluoro-1-methylpiperidin-4-yl)methyl)amino)-3-nitrophenyl)sulfonyl)benzamide]", "values": [
      {"measurement": "pKd", "setting": "[1]", "result": "> 8.00"},
      {"measurement": "pKd", "setting": "[2]", "result": "7.00 to 8.00"},
      {"measurement": "IC50", "setting": "[3]", "result": "< 100", "unit": "nM"}
    ]},
    {"molecule": "CC1(C)CCC(C23CC(C)(C2)C3)=C(CN2CCN(c3ccc(C(=O)NS(=O)(=O)c4ccc(N[C@H](CCN5CCOCC5)CSc5ccccc5)c(S(=O)(=O)C(F)(F)F)c4)cc3)CC2)C1", "note": "[Example 47, (R)-4-(4-((5,5-Dimethyl-2-(3-methylbicyclo[1.1.1]pentan-1-yl)cyclohex-1-enyl)methyl)piperazin-1-yl)-N-(4-(4-morpholino-1-(phenylthio)butan-2-ylamino)-3-(trifluoromethylsulfonyl)phenylsulfonyl)benzamide]", "values": [
      {"measurement": "pKd", "setting": "[1]", "result": "< 7.00"},
      {"measurement": "pKd", "setting": "[2]", "result": "7.00 to 8.00"},
      {"measurement": "IC50", "setting": "[3]", "result": "> 1000", "unit": "nM"}
    ]},
    {"molecule": "CC1(C)CCC(CN2CCN(c3ccc(C(=O)NS(=O)(=O)c4ccc(NCC5(F)CCOCC5)c([N+](=O)[O-])c4)c(Oc4cnc5[nH]ccc5c4)c3)CC2)=C(C23CC(C(F)F)(C2)C3)C1", "note": "[Example 35, 2-((1H-pyrrolo[2,3-b]pyridin-5-yl)oxy)-4-(4-((2-(3-(difluoromethyl)bicyclo[1.1.1]pentan-1-yl)-4,4-dimethylcyclohex-1-en-1-yl)methyl)piperazin-1-yl)-N-((4-(((4-fluorotetrahydro-2H-pyran-4-yl)methyl)amino)-3-nitrophenyl)sulfonyl)benzamide]", "values": [
      {"measurement": "pKd", "setting": "[1]", "result": "> 8.00"},
      {"measurement": "pKd", "setting": "[2]", "result": "< 7.00"},
      {"measurement": "IC50", "setting": "[3]", "result": "< 100", "unit": "nM"}
    ]}
  ]
}
